Experimental findings from patent publication US10023593B2, “ALK kinase inhibitor, and preparation method and uses thereof” (BEIJING PEARL BIOTECHNOLOGY LIMITED LIABILITY COMPANY, priority 2014, dated 2018) are described below.

For one experiment, the target named is T1, L1196M mutant ALK kinase (Homo sapiens, UniProt Q9UM73, L1196M).
T1 construct: purchased Sino-US Crown Bioscience, Inc. batch number ALKm_20110923
The experiment in a line: HTRF KinEASE-TK assay, inhibitory activity on L1196M mutant ALK kinase. It is filed as biochemical. To be noted: L1196M mutant ALK 1 ng/μl, substrate 1 μM, ATP 5 μM, 30° C. 35 minutes, read-out: Inhibition on ALK kinases (L1196M mutant), IC50. An outline of the steps:
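HTRF TK assay: mutant kinase 1 ng/μl, substrate 1 μM, ATP 5 μM, 5 mM MgCl2, 1 mM DTT, 1% DMSO, 35 min at 30 °C. 665/615 ratio read; inhibition normalised to no-compound and 10.4 μM LDK-378 controls; IC50 from curve fit.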
(In general: TR-FRET usually uses a lanthanide donor and a delayed reading to cut background.)

A further experiment has as its system Karpas-299 cell line. The experiment in a line: CellTiter-Glo cell proliferation inhibition on Karpas-299 cell line. To be noted: Homo sapiens, 96 h, Karpas-299 cells, 5000 cells/well, 4 days drug treatment. It is filed as cell-based. The method in brief: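 CellTiter-Glo luminescence measured after 4-day compound exposure (0.5% DMSO final) of Karpas-299 cells seeded at 5000/well in RPMI-1640 with 10% FBS, 37 °C, 5% CO2. IC50 derived from percent inhibition relative to vehicle wells.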
In general terms: In ATP-based viability assays light output follows the ATP content of the culture.

In the next experiment the target is T2, cytochrome P450 1A2 (Homo sapiens, UniProt P05177).
T2 sequence (P05177 1-516): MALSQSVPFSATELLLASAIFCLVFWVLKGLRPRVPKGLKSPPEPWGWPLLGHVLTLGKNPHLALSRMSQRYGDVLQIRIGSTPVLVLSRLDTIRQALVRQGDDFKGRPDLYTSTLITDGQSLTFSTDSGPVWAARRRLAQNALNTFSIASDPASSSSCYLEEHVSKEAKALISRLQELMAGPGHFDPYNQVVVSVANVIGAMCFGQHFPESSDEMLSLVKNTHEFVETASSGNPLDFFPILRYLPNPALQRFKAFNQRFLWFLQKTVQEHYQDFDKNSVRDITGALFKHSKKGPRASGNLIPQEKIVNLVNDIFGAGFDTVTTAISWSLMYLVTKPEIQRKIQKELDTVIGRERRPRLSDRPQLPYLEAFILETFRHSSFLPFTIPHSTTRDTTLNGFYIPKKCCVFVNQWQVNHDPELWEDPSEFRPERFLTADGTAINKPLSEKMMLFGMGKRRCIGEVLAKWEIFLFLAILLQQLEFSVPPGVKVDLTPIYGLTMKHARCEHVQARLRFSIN
Nature of the experiment: Inhibitory activity on cytochrome P450 1A2. It is filed as in vitro ADME. To be noted: no significant inhibition.

The next experiment has as its target cytochrome P450 2C9 (Homo sapiens, UniProt P11712). The experiment in a line: Inhibitory activity on cytochrome P450 2C9. It is filed as in vitro ADME. To be noted: no significant inhibition.
A further experiment addresses cytochrome P450 2C19 (Homo sapiens, UniProt P33261). Nature of the experiment: Inhibitory activity on cytochrome P450 2C19. It is filed as in vitro ADME. To be noted: no significant inhibition.
A further experiment deals with cytochrome P450 3A4 (Homo sapiens, UniProt P08684). Nature of the experiment: Inhibitory activity on cytochrome P450 3A4. It is filed as in vitro ADME. To be noted: no significant inhibition.
Chain of cytochrome P450 3A4 (P08684 whole entry): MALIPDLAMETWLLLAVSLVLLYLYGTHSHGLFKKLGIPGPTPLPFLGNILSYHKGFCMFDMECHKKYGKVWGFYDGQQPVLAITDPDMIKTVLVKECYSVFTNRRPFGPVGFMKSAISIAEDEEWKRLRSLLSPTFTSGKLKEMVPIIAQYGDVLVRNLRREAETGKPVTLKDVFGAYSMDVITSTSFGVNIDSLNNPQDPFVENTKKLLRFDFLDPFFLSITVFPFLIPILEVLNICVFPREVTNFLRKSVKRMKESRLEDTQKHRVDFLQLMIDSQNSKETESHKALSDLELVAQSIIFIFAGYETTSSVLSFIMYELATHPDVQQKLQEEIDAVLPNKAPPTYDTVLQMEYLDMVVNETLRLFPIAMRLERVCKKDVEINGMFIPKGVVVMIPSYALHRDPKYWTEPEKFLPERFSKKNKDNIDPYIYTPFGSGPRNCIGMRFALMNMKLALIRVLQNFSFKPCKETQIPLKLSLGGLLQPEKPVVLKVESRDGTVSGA

Structures are written as SMILES.

Chain of cytochrome P450 2C9 (P11712 whole entry): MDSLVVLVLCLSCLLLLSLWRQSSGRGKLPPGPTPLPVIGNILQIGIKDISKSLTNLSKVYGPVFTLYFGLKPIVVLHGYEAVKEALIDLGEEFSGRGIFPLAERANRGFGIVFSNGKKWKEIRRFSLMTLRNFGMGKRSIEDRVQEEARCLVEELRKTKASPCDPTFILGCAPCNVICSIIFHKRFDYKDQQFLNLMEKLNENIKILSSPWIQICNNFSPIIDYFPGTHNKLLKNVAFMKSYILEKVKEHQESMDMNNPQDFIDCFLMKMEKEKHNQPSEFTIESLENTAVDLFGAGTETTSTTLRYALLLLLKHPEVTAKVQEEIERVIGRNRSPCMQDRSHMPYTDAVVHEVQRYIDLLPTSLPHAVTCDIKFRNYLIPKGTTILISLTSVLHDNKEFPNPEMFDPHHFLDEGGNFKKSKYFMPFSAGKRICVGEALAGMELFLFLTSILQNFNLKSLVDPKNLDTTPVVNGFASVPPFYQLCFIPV
T1 sequence (Q9UM73 19-1620 L1196M): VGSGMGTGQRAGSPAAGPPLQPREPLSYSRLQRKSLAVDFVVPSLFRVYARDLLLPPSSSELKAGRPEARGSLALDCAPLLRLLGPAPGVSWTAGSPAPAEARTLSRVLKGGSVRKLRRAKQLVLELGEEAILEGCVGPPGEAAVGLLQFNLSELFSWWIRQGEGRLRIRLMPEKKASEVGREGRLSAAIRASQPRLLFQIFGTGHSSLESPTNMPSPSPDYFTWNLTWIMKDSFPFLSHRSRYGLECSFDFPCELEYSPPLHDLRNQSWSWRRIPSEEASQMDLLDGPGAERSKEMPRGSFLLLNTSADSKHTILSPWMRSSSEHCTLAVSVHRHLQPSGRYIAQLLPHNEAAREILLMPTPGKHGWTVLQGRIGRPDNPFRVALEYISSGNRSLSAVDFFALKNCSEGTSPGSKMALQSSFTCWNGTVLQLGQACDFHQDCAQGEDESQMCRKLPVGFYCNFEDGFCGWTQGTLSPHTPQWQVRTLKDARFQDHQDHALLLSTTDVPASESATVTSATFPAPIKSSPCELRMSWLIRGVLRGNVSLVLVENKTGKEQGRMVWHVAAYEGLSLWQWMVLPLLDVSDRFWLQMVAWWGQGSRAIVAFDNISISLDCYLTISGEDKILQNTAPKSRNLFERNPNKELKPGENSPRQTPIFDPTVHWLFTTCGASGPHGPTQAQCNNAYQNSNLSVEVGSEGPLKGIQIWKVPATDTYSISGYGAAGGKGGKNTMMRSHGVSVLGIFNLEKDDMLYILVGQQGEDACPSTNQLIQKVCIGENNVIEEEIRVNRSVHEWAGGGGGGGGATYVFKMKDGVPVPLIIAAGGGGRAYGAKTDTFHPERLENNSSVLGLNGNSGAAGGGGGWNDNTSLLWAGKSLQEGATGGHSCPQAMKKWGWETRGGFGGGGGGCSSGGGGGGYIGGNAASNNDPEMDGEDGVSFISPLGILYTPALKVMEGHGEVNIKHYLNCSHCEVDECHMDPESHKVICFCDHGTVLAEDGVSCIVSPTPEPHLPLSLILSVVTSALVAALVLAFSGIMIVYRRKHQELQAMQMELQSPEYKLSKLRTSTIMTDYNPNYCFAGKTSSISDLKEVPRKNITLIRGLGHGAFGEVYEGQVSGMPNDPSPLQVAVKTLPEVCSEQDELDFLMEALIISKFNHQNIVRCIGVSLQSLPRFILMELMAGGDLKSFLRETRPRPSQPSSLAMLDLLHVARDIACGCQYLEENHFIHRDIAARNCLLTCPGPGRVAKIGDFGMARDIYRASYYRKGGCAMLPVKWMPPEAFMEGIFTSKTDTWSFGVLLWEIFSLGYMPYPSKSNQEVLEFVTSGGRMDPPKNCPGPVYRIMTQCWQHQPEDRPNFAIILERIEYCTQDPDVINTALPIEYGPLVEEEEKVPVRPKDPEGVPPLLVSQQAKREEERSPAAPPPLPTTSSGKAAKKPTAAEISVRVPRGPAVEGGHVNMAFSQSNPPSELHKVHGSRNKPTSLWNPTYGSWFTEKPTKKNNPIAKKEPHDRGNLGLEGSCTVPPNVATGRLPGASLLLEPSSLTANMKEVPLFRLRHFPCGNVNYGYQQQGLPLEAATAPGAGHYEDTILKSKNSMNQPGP
Chain of cytochrome P450 2C19 (P33261 whole entry): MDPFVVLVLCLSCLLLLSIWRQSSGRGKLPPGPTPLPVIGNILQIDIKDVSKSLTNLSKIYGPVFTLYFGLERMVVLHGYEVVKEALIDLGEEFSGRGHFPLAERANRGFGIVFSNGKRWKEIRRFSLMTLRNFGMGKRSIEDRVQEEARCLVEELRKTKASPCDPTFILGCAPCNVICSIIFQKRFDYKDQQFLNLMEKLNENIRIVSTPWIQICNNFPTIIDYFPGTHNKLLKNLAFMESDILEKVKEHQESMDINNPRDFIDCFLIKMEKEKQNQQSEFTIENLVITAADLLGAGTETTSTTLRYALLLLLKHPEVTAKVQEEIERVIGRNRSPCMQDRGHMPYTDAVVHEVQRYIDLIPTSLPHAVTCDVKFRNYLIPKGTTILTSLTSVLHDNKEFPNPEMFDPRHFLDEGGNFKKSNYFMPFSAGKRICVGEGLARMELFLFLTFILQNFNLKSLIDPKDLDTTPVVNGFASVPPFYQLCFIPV

What is called IC50 is the concentration needed to halve the response being measured. On to `CC(C)Oc1cc(C2CCNCC2)ccc1Nc1ncc(Cl)c(Nc2cn(C)nc2S(=O)(=O)C(C)C)n1` [Final product 1, 5-chloro-N^2-[2-isopropoxy-4-(piperidin-4-yl)phenyl]-N^4-(3-isopropylsulfonyl-1-methyl-1H-pyrazol-4-yl)pyrimidin-2,4-diamine], for which the IC50 on L1196M mutant ALK kinase came to 0.008 µM; with Karpas-299 cell line it was 0.01 µM.
On the same counts, the results for `Cc1cc(Nc2ncc(Cl)c(Nc3cn(C)nc3S(=O)(=O)C(C)C)n2)c(OC(C)C)cc1C1CCNCC1` [Final product 2] are 0.016 µM and 0.016 µM.
Consider `Cc1cc(Nc2ncc(Cl)c(Nc3cn(C)nc3S(=O)(=O)C(C)C)n2)c(OC(C)C)cc1C1CCNC1` (centres unmarked) [Final product 3], for which the 50% inhibitory concentration (IC50) came to 0.005 µM at L1196M mutant ALK kinase and 0.028 µM with Karpas-299 cell line.
As to `Cc1cc(Nc2ncc(Cl)c(Nc3cn(C)nc3S(=O)(=O)C(C)C)n2)c(OC2CC2)cc1C1CCN(C)C1` (centres unmarked) [Final product 53], the 50% inhibitory concentration (IC50) was found to be 0.004 µM on L1196M mutant ALK kinase and 0.016 µM with Karpas-299 cell line.
On the same counts, the results for `Cc1cc(Nc2ncc(Cl)c(Nc3cn(C)nc3S(=O)(=O)C(C)C)n2)c(OC2CC2)cc1C1CN(C)C1` [Final product 54] are 0.005 µM and 0.007 µM.
For the compound `Cc1cc(Nc2ncc(Cl)c(Nc3cn(C)nc3S(=O)(=O)CC(C)C)n2)c(OC2CC2)cc1C1CN(C)C1` [Final product 55], the figures for the IC50 on L1196M mutant ALK kinase and in the experiment on Karpas-299 cell line were 0.008 µM and 0.025 µM, respectively.
On to `Cc1cc(Nc2ncc(Cl)c(Nc3cn(C4CC4)nc3S(=O)(=O)C(C)C)n2)c(OC2CC2)cc1C1CCN(C)CC1` [Final product 56], for which the figures for the IC50 on L1196M mutant ALK kinase and in the experiment on Karpas-299 cell line were 0.011 µM and 0.021 µM, respectively.
On to `Cc1cc(Nc2ncc(Cl)c(Nc3cn(C)nc3S(=O)(=O)CC(C)C)n2)c(OC2CC2)cc1C1CCN(C)CC1` [Final product 57], for which the IC50 was 0.011 µM on L1196M mutant ALK kinase; 0.012 µM with Karpas-299 cell line; over 10 µM at cytochrome P450 1A2; over 10 µM against cytochrome P450 2C9; over 10 µM against cytochrome P450 2C19; over 10 µM against cytochrome P450 3A4.
For the compound `COC1CN(C)CCC1c1cc(OC2CC2)c(Nc2ncc(Cl)c(Nc3cn(C)nc3S(=O)(=O)C(C)C)n2)cc1C` (centres unmarked) [Final product 58], the IC50 at L1196M mutant ALK kinase came to 0.006 µM; in the experiment on Karpas-299 cell line, 0.011 µM.
`COCC1CC(c2cc(OC3CC3)c(Nc3ncc(Cl)c(Nc4cn(C)nc4S(=O)(=O)C(C)C)n3)cc2C)CCN1C` (centres unmarked) [Final product 77]: the IC50 at L1196M mutant ALK kinase was 0.004 µM; with Karpas-299 cell line, 0.004 µM; against cytochrome P450 1A2, over 10 µM; against cytochrome P450 2C9, over 10 µM; against cytochrome P450 2C19, over 10 µM; on cytochrome P450 3A4, over 10 µM.
On to `COCC1CC(c2cc(OC3CC3)c(Nc3ncc(Cl)c(Nc4cn(C)nc4S(=O)(=O)CC(C)C)n3)cc2C)CCN1C` (centres unmarked) [Final product 79], for which the half-maximal inhibitory concentration (IC50) turned out to be 0.008 µM on L1196M mutant ALK kinase and 0.012 µM in the experiment with Karpas-299 cell line.
In the case of `Cc1cc(Nc2ncc(Cl)c(Nc3cn(C4CC4)nc3S(=O)(=O)C(C)C)n2)c(OC(C)C)cc1C1CCN(C)CC1` [Final product 81], the 50% inhibitory concentration (IC50) came out at 0.025 µM at L1196M mutant ALK kinase and 0.027 µM in the experiment on Karpas-299 cell line.
Take `COCCN1CCC(c2cc(OC3CC3)c(Nc3ncc(Cl)c(Nc4cn(C)nc4S(=O)(=O)C(C)C)n3)cc2C)CC1` [Final product 82]: the concentration for half-maximal inhibition (IC50) on L1196M mutant ALK kinase was 0.007 µM; with Karpas-299 cell line, 0.014 µM; against cytochrome P450 1A2, over 10 µM; against cytochrome P450 2C9 it was over 10 µM; against cytochrome P450 2C19, over 10 µM; on cytochrome P450 3A4 it was over 10 µM.
With `Cc1cc(Nc2ncc(Cl)c(Nc3cn(C)nc3S(=O)(=O)C(C)C)n2)c(OC2CC2)cc1C1CCN(C)CC1F` (centres unmarked) [Final product 87], the values for the IC50 at L1196M mutant ALK kinase and in the experiment with Karpas-299 cell line were 0.01 µM and 0.013 µM, respectively.
Taken in the same sequence, the figures for `Cc1cc(Nc2ncc(Cl)c(Nc3cn(C)nc3S(=O)(=O)C(C)C)n2)c(OC2CC2)cc1C1CCN(C)CC1(F)F` (centres unmarked) [Final product 88] were 0.015 µM and 0.017 µM.
Taken in the same sequence, the figures for `Cc1cc(Nc2ncc(Cl)c(Nc3cn(C)nc3S(=O)(=O)C(C)C)n2)c(OC2CC2)cc1C1CCN(C)CC1C` (centres unmarked) [Final product 90] were 0.004 µM and 0.005 µM.
Turning to `Cc1cc(Nc2ncc(Cl)c(Nc3cn(C)nc3S(=O)(=O)C(C)C)n2)c(OC2CC2)cc1C1CCC(NS(C)(=O)=O)CC1` (centres unmarked) [Final product 205, N-(4-(4-(5-chloro-4-(3-(isopropylsulfonyl)-1-methyl-1H-pyrazol-4-amine)pyrimidin-2-amine)-5-cyclopropoxy-2-methylphenyl)cyclohexyl)methanesulfonamide], the IC50 is 0.02 µM at L1196M mutant ALK kinase; 0.018 µM with Karpas-299 cell line; over 10 µM at cytochrome P450 1A2; over 10 µM against cytochrome P450 2C9; over 10 µM on cytochrome P450 2C19; over 10 µM on cytochrome P450 3A4.
